Read-outs that look alike come from different tables or passages of the source. Starred links: 1 amine or outer side, 2 acyl side, 3 side chain; linkers in the order of their positions; H or OH if unused. Positions of bridges follow the written chain, without caps; N, C: chain ends. Non-standard residues stand in square brackets, D forms with d. Residues, ends and D or L forms follow the SMILES beside them. Chains are numbered I, II in the order given. Actinocin(9to1) = Cc1c2oc3c(C)ccc(C(=O)[*:1])c3nc-2c(C(=O)[*:2])c(N)c1=O; NMeV = CN[C@H](C(=O)O)C(C)C; Sar = CNCC(=O)O
Assays:
[1] = system: engrafted CLL mice (CD5/CD19 cells); assay: Treatment study 02: reduced actinomycin D concentrations in murine B-CLL model; type: in vivo
Protocol: (§1) The original Eµ-TCL1a transgenic mice which were generously provided by C. Croce (Ohio) have been back-crossed for > 9 generations to C57BL/6 mice. Mice were killed at stated ages, or when signs of illness developed, and samples for histology, flow cytometry, and miRNA isolation were collected. The tumor load in all lymphoid organs was assessed by flow cytometry following staining for the surface markers CD19, CD5, and IgM. Approval from the Austrian Animal Ethics committee was obtained prior to performing the experiments. Engrafted mice were produced by injecting 3 x 10^6 lymphocytes of a leukemic Eµ-TCL1a transgenic mouse into 30 Black 6 mice from Charles River Laboratories, Sulzfeld, Germany.
In example 1 a treatment schedule of 0.06 mg/kg daily for two weeks was used. […] To assess the tumour load blood samples were consecutively taken from the tail vein.

[2] = system: B-CLL cells bearing the chromosomal aberration del(17p)13; assay: Viability / apoptosis of del(17p)13 B-CLL cells (flow cytometry, AnnexinV/7-AAD); type: cell-based, human; conditions: for viability reduction: 160 nM
Protocol: (§2) Viability was measured using flow-cytometry (AnnexinV/7-AAD,-/-). […] The length of the box corresponds to the interquartile range (IQR) and is the difference between the 75th and 25th percentiles. The horizontal line in the box is the median. […] Viability of B-CLL cells was assessed using a flow-cytometer (Annex-inV/7-AAD -/-). The length of the box corresponds to the interquartile range (IQR) and is the difference between the 75th and 25th percentiles. The horizontal line in the box is the median. […] Day zero is the day of engraftment with 3x10^6 lymphocytes derived from TCL1 transgenic mice with overt leukemia. […] Blood samples were collected from the tail vein of the respective animal and whole blood was analysed for CD5/CD19 positive cells using a flow-cytometer. […] Dashed line is 0.04 mg/kg and black line is 0.05 mg/kg daily for two weeks.
The supplied substances were solved in 100 µl medium at 37°C 90 min on a rotation shaker and transferred to a 96-well plated. Then 100µl medium containing 1.5 x 10^6 B-CLL cells was added. Final concentration of the substances was 20 µM. After a incubation time of 48 h 50 µl XTT-dye was added and absorption measured as above. […] Only substances that reduced the cell metabolism/dye development > 50 % were counted. The reason for this higher cut off value is the low proliferative activity of B-CLL cells who are mainly in Go arrest. Positive substances were double checked with Annex-inV/7-AAD apoptosis/necrosis staining in CD19+/CD5+ positive cells on a flow cytometer.

B-CLL cells = assay: IC50 determination (XTT dye, 48 h); type: cell-based, human
Protocol: 1.5 x 10^6 B-CLL cells and 0.4 x 10^6 CEM-C7H2 cells per well were incubated with different concentrations of the respective substance (0,2, 0,5, 1, 2, 5, 10, 20 µM) and incubated for 48 h. After this XTT-dye solution was added as described above and absorption was measured at 450 nm with 655 nm as reference wavelength. Concentrations that led to a 50 % metabolism reduction were monitored as IC50 value.
Finally, the substances were tested for their toxicity in cell lines from different parts of the human body such as liver (HepG2), kidney (HEK-293), lung (SHP-77), skin keratinocytes (WS-1) and in human umbilical vein endothelial cells from 3 different donors. […] For these substances the mean IC50 (48h) in 4 B-CLL cells samples from 4 different donors was determined and the substances were numbered beginning with the lowest IC50 in B-CLL cells.

[3] = system: engrafted wildtype (C57BL/6) mice (CD5+/CD19+ cells); assay: Treatment study 03: head to head comparison of actinomycin D and fludarabine; type: in vivo; conditions: for 50 % survival time after start of treatment / tumour load reduction: actinomycin D 0.06 mg/kg daily for 14 days, fludarabine 34 mg/kg for 5 days; for tumour load reduction: day 22 after treatment start, vs untreated mice
Protocol: as §2, §1
At day 22 after treatment start tumour load was assessed compared to that of the tumour load of untreated mice.

[4] = system: engrafted B-CLL mice (CD5/CD19 cells)
Protocol: as §1
First a treatment study included 10 mice.
To assess tumour load development after treatment blood samples were collected from the tail vein (Fig. 4).

[5] = system: colon cancer cell line HCT116; assay: Sensitivity of isogenic HCT116 with or without p53 deletion; type: cell-based
[6] = system: B-CLL cells of patients with no p53 aberrations; assay: Influence of the p53 inhibitor pifithrin-alpha on drug susceptibility (flow cytometry, AnnexinV/7-AAD); type: cell-based, human
Protocol: as §2
B-CLL cells of patients with no p53 aberrations were treated with 160 nM actinomycin w or w/o 30 µM pifithrin-alpha.

Cc1c2oc3c(C)ccc(C(=O)N[C@@H]4C(=O)N[C@H](C(C)C)C(=O)N5CCC[C@H]5C(=O)N(C)CC(=O)N(C)[C@@H](C(C)C)C(=O)O[C@@H]4C)c3nc-2c(C(=O)N[C@@H]2C(=O)N[C@H](C(C)C)C(=O)N3CCC[C@H]3C(=O)N(C)CC(=O)N(C)[C@@H](C(C)C)C(=O)O[C@@H]2C)c(N)c1=O [actinomycin D] (I: T[dV]P[Sar][NMeV] / II: T[dV]P[Sar][NMeV]; ester I:1-I:C, II:1-II:C; linker I:N-II:N via Actinocin(9to1))
tumour cells after treatment ([1]; 0.05 mg/kg or 0.04 mg/kg daily for two weeks, two mice each, start 47 days after engraftment): severe reduction of tumour cells | time until tumour load increased to the initial values after the first treatment ([1]; 0.05 or 0.04 mg/kg daily for two weeks, after first treatment): 46 days | time until CD5/CD19 counts increased again after the second treatment ([1]; 0.05 or 0.04 mg/kg daily for two weeks, after retreatment): 44 days | viability (Fig. 1) ([2]; 20 nM, 48 h, 4 p53 deleted, fludarabine resistant B-CLL patients, p < 0.001): significant viability reduction | apoptosis induced in % of B-CLL cells ([2]; 20 nM, within 48 h, del(17p)13 B-CLL cells (Fig. 1)): > 80% | viability reduction ([2]; del(17p)13 B-CLL samples derived from peripheral blood): > 45% | viability reduction ([2]; one del(17p)13 sample derived from the bone marrow): 38% | apoptosis induction ([2]; 20 µM, three B-CLL samples of patients with del(17p)13): able to induce apoptosis in all three B-CLL cells samples | IC50 (B-CLL cells; 4 B-CLL cells samples from 4 different donors, 48 h, in vitro, read-out: mean IC50 (48h)): 0.08 µM | tumour load (CD5+/CD19+ cell count), Fig. 6 ([3]; 22 days after treatment start): highly significant tumour load reduction | 50 % survival time after start of treatment [3]: 103 days | tumour load reduction [3]: more than 80% | survival difference to the mock treated animals (Fig. 3) ([4]; 0,06 mg/kg daily for two weeks vs PBS): highly significant | time after the initial therapy until retreatment ([4]; CD5/CD19 counts back at the initial value at day 135): 85 days | CD5/CD19 count after treatment ([4]; treatment at day 50, three surviving animals, tail vein blood): A reduction of the CD5/CD19 count can be observed in all three animals | effect of p53 deletion on actinomycin D susceptibility [5]: no effect

CN1CC[C@H](c2c(O)cc(O)c3c(=O)cc(-c4ccccc4Cl)oc23)[C@H](O)C1 [flavopiridol]
synergism with pifithrin-alpha ([6]; with or without 30 µM pifithrin-alpha, 48 h, 160 nM actinomycin (text; Fig. 2: 20 nM), 50 nM flavopiridol, 10 µM fludarabine): synergistic with pifithrin-alpha

Nc1nc(F)nc2c1ncn2[C@@H]1O[C@H](CO)[C@@H](O)[C@@H]1O [fludarabine]
IC50 (B-CLL cells; Homo sapiens, B-CLL, read-out: double IC50 determined for fludarabine, printed as the double IC50, unclear whether 3µM is the IC50 or its double): 3 µM | 50 % survival time after start of treatment [3]: 47 days | tumour load reduction [3]: 20%

Cc1ccc(C(=O)Cn2c3c(sc2=N)CCCC3)cc1 [pifithrin-alpha]
effect of pifithrin-alpha alone on viability of CLL cells ([6]; 30 µM, alone): no effect on viability

Source: patent publication EP2397149A1 (Hil-Invent Ges.M.B.H., priority 2010, dated 2011)
